From patent US20250319046A1, “PHENYLALANINE-BASED LAT1 INHIBITORS AND USES THEREOF” (MAXYMUNE THERAPEUTICS, INC., priority 2024, published 2025)

molecular target: LAT1 (Homo sapiens (Human), UniProt Q01650); experiment: LAT1 uptake inhibition assay: [3H]-gabapentin competition uptake in LN229 cells; format: cell-based; conditions: [3H]-gabapentin uptake, 15 min incubation in PBS, read-out: IC50, the concentration of test compound at which the [3H]-GP uptake was inhibited by 50%
Experimental: LAT1 Uptake Inhibition Assay
The ability of compounds to interact with LAT1 was measured using a radiolabeled competition uptake assay with [^3H]-Gabapentin ([^3H]-GP) (Perkin Elmer) in 96-well plates with LN229 cells (ATCC®). Ten (10)×10^3 (10,000) cells/well were plated in white, clear bottom plates and were allowed to grow for three (3) days. On the fourth day, the cells were washed and then incubated with 50,000 counts per minute (cpm) of [^3H]-GP in phosphate buffered saline (PBS) (VWR International) with increasing concentrations of test compounds in at least triplicate for 15 min. At end of the assay time, the incubation solution was removed, and plates were washed three times (3×) with 100 μL of ice-cold PBS buffer. One-hundred fifty (150) […] of scintillation fluid (VWR International) was added to each well, and the radioactivity retained within the cells was measured on a 96-well scintillation counter. Background uptake ([^3H]-GP uptake in the presence of 10 mM non-radiolabeled gabapentin (GP)) (MedKoo) was subtracted and data were normalized to the DMSO control ([^3H]-GP uptake in the absence of any competitor). Data were fitted to the Michaelis-Menten equation using GraphPad Prism (Version 8.2.0).

Sequence of LAT1 (Q01650 whole entry): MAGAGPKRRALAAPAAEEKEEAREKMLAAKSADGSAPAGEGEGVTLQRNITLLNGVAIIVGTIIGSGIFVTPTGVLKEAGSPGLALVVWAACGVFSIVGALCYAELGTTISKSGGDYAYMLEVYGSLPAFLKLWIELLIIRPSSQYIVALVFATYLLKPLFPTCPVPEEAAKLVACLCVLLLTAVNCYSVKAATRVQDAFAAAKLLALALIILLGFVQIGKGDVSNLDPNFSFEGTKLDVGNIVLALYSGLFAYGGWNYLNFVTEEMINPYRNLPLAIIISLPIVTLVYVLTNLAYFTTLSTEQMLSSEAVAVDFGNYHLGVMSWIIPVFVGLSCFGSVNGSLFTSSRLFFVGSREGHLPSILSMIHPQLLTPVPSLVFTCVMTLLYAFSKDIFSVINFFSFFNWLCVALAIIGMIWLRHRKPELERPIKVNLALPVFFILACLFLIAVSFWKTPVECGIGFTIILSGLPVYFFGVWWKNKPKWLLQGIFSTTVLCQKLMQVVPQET
Sequence of LAT1 (P08195 whole entry partner): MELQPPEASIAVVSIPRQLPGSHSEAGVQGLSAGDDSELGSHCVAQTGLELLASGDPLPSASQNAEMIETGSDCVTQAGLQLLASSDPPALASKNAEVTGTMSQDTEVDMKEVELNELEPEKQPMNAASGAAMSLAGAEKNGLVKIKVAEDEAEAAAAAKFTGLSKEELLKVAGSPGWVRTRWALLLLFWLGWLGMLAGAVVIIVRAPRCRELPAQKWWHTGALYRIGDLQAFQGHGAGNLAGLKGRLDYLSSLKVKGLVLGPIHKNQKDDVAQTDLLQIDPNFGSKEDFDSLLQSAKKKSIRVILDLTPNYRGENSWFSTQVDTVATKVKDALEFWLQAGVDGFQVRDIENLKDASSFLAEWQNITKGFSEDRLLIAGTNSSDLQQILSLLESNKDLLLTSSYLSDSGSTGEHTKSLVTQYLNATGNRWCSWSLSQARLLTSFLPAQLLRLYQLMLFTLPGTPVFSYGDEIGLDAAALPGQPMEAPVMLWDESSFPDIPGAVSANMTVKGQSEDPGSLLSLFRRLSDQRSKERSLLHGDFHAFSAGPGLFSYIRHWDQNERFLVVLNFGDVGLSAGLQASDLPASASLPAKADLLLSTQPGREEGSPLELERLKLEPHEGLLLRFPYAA

IC50 [nM]	Compound
20 to 100	Cc1ccc(S(=O)(=O)N(C)c2ccc(Cl)cc2)cc1C[C@H](N)C(=O)O [Compound 84, (S)-2-Amino-3-(5-(N-(4-chlorophenyl)-N-methylsulfamoyl)-2-methylphenyl)propanoic Acid]
≥ 10000	Cc1ccc(S(=O)(=O)N2CCC[C@@H]2C(=O)O)cc1C[C@H](N)C(=O)O [Compound 45, ((3-((S)-2-Amino-2-carboxyethyl)-4-methylphenyl)sulfonyl)-D-proline]
100 to 1000	Cc1ccc(NS(=O)(=O)Cc2ccccc2)cc1C[C@H](N)C(=O)O [Compound 23, (S)-2-Amino-3-(2-methyl-5-((phenylmethyl)sulfonamido)phenyl)propanoic Acid]
1000 to 10000	Cc1ccc(CNS(=O)(=O)Cc2ccccc2)cc1C[C@H](N)C(=O)O [Compound 54, (S)-2-Amino-3-(2-methyl-5-(((phenylmethyl)sulfonamido)methyl)phenyl)propanoic Acid]
≥ 10000	N[C@@H](Cc1cc(NS(=O)(=O)c2ccccc2)cc(NS(=O)(=O)c2ccccc2)c1)C(=O)O [Compound 62, (S)-2-Amino-3-(3,5-bis(phenylsulfonamido)phenyl)propanoic Acid]
≥ 10000	CNS(=O)(=O)c1cccc(C[C@H](N)C(=O)O)c1 [Compound 72, (S)-2-Amino-3-(3-(N-methylsulfamoyl)phenyl)propanoic Acid]
100 to 1000	Cc1ccc(S(=O)(=O)NCC(C)C)cc1C[C@H](N)C(=O)O [Compound 46, (S)-2-Amino-3-(5-(N-isobutylsulfamoyl)-2-methylphenyl)propanoic Acid]
1000 to 10000	Cc1ccc(NS(=O)(=O)C2CC2)cc1C[C@H](N)C(=O)O [Compound 14, (S)-2-Amino-3-(5-(cyclopropanesulfonamido)-2-methylphenyl)propanoic Acid]
≥ 10000	Cc1ccc(NS(=O)(=O)c2c[nH]cn2)cc1C[C@H](N)C(=O)O [Compound 31, (S)-3-(5-(1H-imidazole-4-sulfonamido)-2-methylphenyl)-2-aminopropanoic Acid]
100 to 1000	Cc1cc(S(=O)(=O)Nc2ccc(Cl)cc2)ccc1C[C@H](N)C(=O)O [Compound 85, (S)-2-Amino-3-(4-(N-(4-chlorophenyl)sulfamoyl)-2-methylphenyl)propanoic Acid]
100 to 1000	Cc1ccc(S(=O)(=O)Nc2cccc(S(=O)(=O)Nc3ccc(C)c(C[C@H](N)C(=O)O)c3)c2)cc1 [Compound 32, (S)-2-Amino-3-(2-methyl-5-((3-((4-methylphenyl)sulfonamido)phenyl)sulfonamido)phenyl)propanoic Acid]
100 to 1000	CN(C)c1cccc2c(S(=O)(=O)Nc3ccccc3C[C@H](N)C(=O)O)cccc12 [Compound 19, (S)-2-Amino-3-(2-((5-(dimethylamino)naphthalene)-1-sulfonamido)phenyl)propanoic Acid]
1000 to 10000	N[C@@H](Cc1ccccc1S(=O)(=O)Nc1ccc(Cl)cc1)C(=O)O [Compound 81, (S)-2-Amino-3-(2-(N-(4-chlorophenyl)sulfamoyl)phenyl)propanoic Acid]
1000 to 10000	Cc1ccc(NS(=O)(=O)c2c(Cl)cc(C(F)(F)F)cc2Cl)cc1C[C@H](N)C(=O)O [Compound 36, (S)-2-Amino-3-(5-((2,6-dichloro-4-(trifluoromethyl)phenyl)sulfonamido)-2-methylphenyl)propanoic Acid]
≥ 10000	CS(=O)(=O)Nc1cccc(C[C@H](N)C(=O)O)c1 [Compound 68, (S)-2-Amino-3-(3-(methylsulfonamido)phenyl)propanoic Acid]
100 to 1000	Cc1ccc(S(=O)(=O)Nc2ccc(C)c(C[C@H](N)C(=O)O)c2)cc1 [Compound 7, (S)-2-Amino-3-(2-methyl-5-((4-methylphenyl)sulfonamido)phenyl)propanoic Acid]
100 to 1000	Cc1ccc(NS(=O)(=O)c2cc(Cl)cc(Cl)c2)cc1C[C@H](N)C(=O)O [Compound 43, (S)-2-Amino-3-(5-((3,5-dichlorophenyl)sulfonamido)-2-methylphenyl)propanoic Acid]
100 to 1000	Cc1ccc(NS(=O)(=O)c2cccc3ccccc23)cc1C[C@H](N)C(=O)O [Compound 6, (S)-2-Amino-3-(2-methyl-5-(naphthalene-1-sulfonamido)phenyl)propanoic Acid]
≥ 10000	CS(=O)(=O)Nc1cc(C[C@H](N)C(=O)O)cc(NS(C)(=O)=O)c1 [Compound 61, (S)-2-Amino-3-(3,5-di(methylsulfonamido)phenyl)propanoic Acid]
100 to 1000	Cc1ccc(SCc2ccccc2)cc1C[C@H](N)C(=O)O [Compound 59, (S)-2-Amino-3-(5-(benzylthio)-2-methylphenyl)propanoic Acid]
100 to 1000	Cc1ccc(NS(=O)(=O)c2csc3ccccc23)cc1C[C@H](N)C(=O)O [Compound 27, (S)-2-Amino-3-(5-(benzo[b]thiophene-3-sulfonamido)-2-methylphenyl)propanoic Acid]
1000 to 10000	Cc1ccc(NS(=O)(=O)C(C)C)cc1C[C@H](N)C(=O)O [Compound 20, (S)-2-Amino-3-(2-methyl-5-((1-methylethyl)sulfonamido)phenyl)propanoic Acid]
≥ 10000	N[C@@H](Cc1ccc(S(N)(=O)=O)cc1)C(=O)O [Compound 74, (S)-2-Amino-3-(4-sulfamoylphenyl)propanoic acid]
1000 to 10000	Cc1ccc(NS(=O)(=O)C2CCOCC2)cc1C[C@H](N)C(=O)O [Compound 12, (S)-2-Amino-3-(2-methyl-5-((tetrahydro-2H-pyran)-4-sulfonamido)phenyl)propanoic Acid]
100 to 1000	Cc1ccc(CSCc2ccccc2)cc1C[C@H](N)C(=O)O [Compound 55, (S)-2-Amino-3-(5-((benzylthio)methyl)-2-methylphenyl)propanoic Acid]
1000 to 10000	Cc1ccc(NS(=O)(=O)C[C@@]23CC[C@H](CC2=O)C3(C)C)cc1C[C@H](N)C(=O)O [Compound 22, (S)-2-Amino-3-(5-((((1R,4R)-7,7-dimethyl-2-oxobicyclo[2.2.1]heptan-1-yl)methyl)sulfonamido)-2-methylphenyl)propanoic Acid]
100 to 1000	Cc1ccc(NS(=O)(=O)c2c(Cl)cccc2Cl)cc1C[C@H](N)C(=O)O [Compound 42, (S)-2-Amino-3-(5-((2,6-dichlorophenyl)sulfonamido)-2-methylphenyl)propanoic Acid]
100 to 1000	CN(C)c1cccc2c(S(=O)(=O)Nc3ccc(Cl)c(C[C@H](N)C(=O)O)c3)cccc12 [Compound 15, (S)-2-Amino-3-(2-chloro-5-((5-(dimethylamino)naphthalene)-1-sulfonamido)phenyl)propanoic Acid]
100 to 1000	Cc1ccc(S(=O)(=O)Nc2ccc(Cl)c(Cl)c2)cc1C[C@H](N)C(=O)O [Compound 83, (S)-2-Amino-3-(5-(N-(3,4-dichlorophenyl)sulfamoyl)-2-methylphenyl)propanoic Acid]
